Assay results taken from US10577358B2, “Strigolactone formulations and uses thereof” (SOUND AGRICULTURE COMPANY, priority 2013, dated 2020).

Columns and labels:
Alfalfa seedlings [1] = assay: Salinity tolerance in alfalfa seedlings; assay type: in vivo; settings: 1 mg/mL; irrigated every 48 hours with 100 mL water containing 35 g/L NaCl; after 5 days
Procedure: Alfalfa was grown from seeds for 14 days. Seedlings were treated with 1 mg/mL AB01 or mock treated. After treatment, plants were irrigated with 100 mL water containing 35 g/L dissolved salt (NaCl). Irrigation was performed every 48 hours and plants monitored for symptoms of salinity stress.

[2] = system: grain crop in Striga infested plots; assay: Field trial Siaya County, Kenya: grain yield; assay type: in vivo; settings: 1 gram per acre sprayed 1 week prior to planting
Procedure: We have field trials underway outside of Kisumu, Kenya to test the efficacy of this treatment on maize yields in Striga infested fields.
(§1) Field trial was performed from August 2013 to January 2014 in Siaya County, Kenya. AB01 treated plots were sprayed with a 1 gram per acre dose 1 week prior to planting. Treatment was accomplished by resuspending solid AB01 in 1 mL of acetone, and diluting in 4000 L of water. 3 replicate treated and untreated plots (100 m2 each) were performed. […] (C) The biomass of Striga from each plot was collected and measured after harvest.

MAX1 A. thaliana mutants = assay: Complementation of Arabidopsis mutant deficient in strigolactone biosynthesis; assay type: in vivo, Arabidopsis thaliana; settings: 1 uM as an irrigation supplement vs mock treatment
Procedure: To further validate the bioactivity of AB01 we tested whether the compound could complement mutants of the model plant Arabidopsis thaliana that are deficient in strigolactone biosynthesis. […] We grew MAX1 A. thaliana under standard conditions and added 1 uM AB01 as an irrigation supplement, or a mock treatment. […] Thus, the synthetic AB01 is sufficiently similar to strigolactone to both to trigger Striga germination as well as substitute for the natural compound in a model plant.

Alfalfa seedlings [3] = assay: Drought tolerance in alfalfa seedlings; assay type: in vivo; settings: 1 mg/mL; irrigation stopped; approximately 7 days post-treatment
Procedure: Alfalfa was grown from seeds for 14 days. Seedlings were treated with 1 mg/mL AB01 or mock treated. Irrigation was stopped after treatment and seedlings were monitored for symptoms of water limitation stress.

Wheat = assay: Drought tolerance in greenhouse wheat; assay type: in vivo; settings: 1 mg in 100 mL water; irrigation stopped; 7 days post treatment
Procedure: Wheat was grown in greenhouse conditions from seed for 6 weeks with adequate irrigation. Plants were treated with 1 mg of AB01 resuspended in acetone and diluted in 100 mL water, or mock treated as a control. Irrigation was stopped and plants monitored for symptoms of drought stress.

[4] = system: corn, Dekalb hybrid 68-05; assay: Corn field trial, Hays County, Tex., not irrigated; assay type: in vivo
Procedure: Field trial was performed from April to July 2014 in Hays County, Tex. Dekalb hybrid 68-05 was planted at a density of 25,000 plants per acre (30″ rows with 8″ spacing). The field was top-dressed with 80 lbs/ac nitrogen. The field was not irrigated. AB01 treated plots were sprayed with a 2 gram per acre dose at the tasseling (VT) stage. Spraying was accomplished by resuspending solid AB01 in 0.5 mL of acetone, and diluting in water for a spray volume of 1 gallon per 500 square feet. Experiments were performed in triplicate The fraction of fertilized ears was measured by visual inspection of the ear silk at the R2-R3 stage. Unfertilized silks that appear yellow/green, while fertilized silks appear reddish brown. Completely unfertilized ears have silks that are completely yellow/green, fertilized ears appear brown, while ears with an incomplete degree of fertilized silks have a mixed population of silks. […] Ears were visually inspected at harvest to monitor kernel set (the number of fully formed kernels in the mature ear). […] Ears volume was measured in the field at the R3 stage to calculate ear volume. The length and circumference of each ear was measure, and volume was calculated by treating the ear as a cylinder. Approximately 100 ears from each plot were measured. […] After harvest, ears were shelled and kernels counted and weighed to quantitate the ‘thousand kernel weight’ (TKW), or average mass of kernels in the trial. AB01 treated plots yielded kernels averaging 30% higher mass than control plots. Ears from control and treated plots were harvested, shelled, and moisture tested to quantitate dry mass. Control plots averaged 120 bushels per acre, while AB01 treated plots averaged 143 bushels per acre, a 19% increase. Grain yield is calculated at 15% moisture, a standard measure of harvest output.

[5] = system: Dekalb 67-86 RR corn seedlings; assay: Acute water stress in corn seedlings (leaf rolling score); assay type: in vivo; settings: 40 mL of 0.1 mM or 1.0 mM; 6th day without irrigation; greenhouse
Procedure: Corn seedlings were scored as unstressed, moderately water stressed and severely water stressed as measured by visual inspection of leaf rolling, a response of corn to water stress. Dekalb 67-86 RR corn seeds were planted and then irrigated through 7 days after emergence in a greenhouse setting. Seedlings were then treated with 40 mL of water, 0.1 mM AB01 or 1.0 mM AB01 and irrigation ceased. On the 6th day without irrigation, seedlings were scored for water stress. Seedlings with open leaves were scored as unstressed; seedlings with partial leaf rolling were scored as moderately stressed; seedlings with completely rolled leaves were scored as severely stressed.

Seeds of O. cumana = assay: Germination triggering of parasitic weed seeds; assay type: in vivo; settings: AB01 compared with 5-deoxystrigol; 48 hours post-treatment, triplicate
Procedure: Seeds of O. cumana were primed by incubation on glass fiber filters in darkness at room temperature for 3 days. Specified concentrations of AB01 or 5-dS were applied and seeds were monitored at 48 hours post-treatment. Germination was evident by appearance of haustoria. Experiments were performed in triplicate.

Seeds of Striga asiatica = assay: Triggering Striga seed germination; assay type: in vivo; settings: for bioactivity in Striga germination assay: FIG. 1
Procedure: (B) Bioactivity of synthetic SL. Seeds of Striga asiatica were exposed to SL (right) or a mock treatment (left). […] (C) Synthetic biological pathway for the production of SL in yeast, consisting of enzymes of plant and microbial origin. We tested the ability of AB01 to trigger the germination of Striga seeds. Seeds of Striga asiatica were conditioned by incubation in the dark at 30 degrees for 7 days, and dilutions of the AB01 material in water were applied. We observed that concentrations of 1 nanogram per liter and greater were able to trigger germination of approximately 30% of the seeds, which is similar to published efficiencies and activity for plant-derived strigolactone (FIG. 1A-B).

Striga = assay: Field trial Siaya County, Kenya: reduction of Striga; assay type: in vivo; settings: 1 gram per acre sprayed 1 week prior to planting
Procedure: as §1

Tomato seedlings = assay: Salinity tolerance in tomato seedlings; assay type: in vivo; settings: 10 mg/mL; 250 mL water with 29.2 g/L NaCl 24 hours after treatment; 6 hours after salt irrigation
Procedure: Tomato seedlings were treated with 10 mg/mL AB01 or mock treated. 24 hours after treatment, they were irrigated with 250 mL water containing 29.2 g/L salt (NaCl).

Striga hermonthica seeds = settings: at 10^-8 M concentrations; cited from earlier work

Compound: CC1=CC(O/C=C2\C(=O)O[C@]3(C)CCC4C(C)(C)CCC[C@]4(C)[C@@H]23)OC1=O (stereo partly shown) [AB01]
- vigor under salinity stress (Alfalfa seedlings [1]): significantly higher vigor
- increase of grain yield compared to untreated plots [2]: 25%
- effect on phenotype of strigolactone-deficient mutant (MAX1 A. thaliana mutants): visible impact on the phenotype of the mutant
- appearance of seedlings under water limitation (Alfalfa seedlings [3]): appeared robust
- symptoms of drought stress (wilting) (Wheat): appeared vigorous
- increase of harvest yield over control plots ([4]; 2 gram per acre spray at VT): 19%
- ear volume ([4]; 2 gram per acre spray at VT, R3 stage, approximately 100 ears per plot, vs mock treated): significantly higher volumes
- kernel set at harvest ([4]; 2 gram per acre spray at VT, vs mock treated): more complete kernel set and few signs of kernel abortion
- fraction of fertilized ears (visual inspection of ear silk) ([4]; 2 gram per acre spray at tasseling (VT), R2-R3 stage, vs mock treated control): decreased the fraction of unfertilized ears while increasing the fraction of fertilized ears
- fraction of unstressed / severely water stressed seedlings [5]: decreased the fraction of severely stressed seedlings while increasing the fraction of unstressed seedlings in a dose-dependent manner
- germination triggering efficiency (appearance of haustoria) (Seeds of O. cumana): Significant differences in germination triggering efficiency
- bioactivity in Striga germination assay (Seeds of Striga asiatica): graded dose-response behavior
- bioactivity in Striga germination assay (Seeds of Striga asiatica; listed as Synthetic SL): potent bioactivity
- bioactivity in Striga germination assay (Seeds of Striga asiatica; listed as synthetic SL): displayed bioactivity
- bioactivity in Striga germination assay (Seeds of Striga asiatica; listed as synthetically produced SL): effective at germinating seeds of Striga asiatica
- concentrations able to trigger germination (Seeds of Striga asiatica; Striga asiatica seeds conditioned 7 days, dilutions in water): ≥ 1 nanogram per liter
- seeds triggered to germinate (Seeds of Striga asiatica; Striga asiatica seeds conditioned in the dark at 30 degrees for 7 days, dilutions in water, 1 nanogram per liter and greater): approximately 30%
- count of emergent Striga per plot (Striga): few parasites
- Striga emergence and Striga-related stress during season (Striga; 3 replicate plots of 100 m2): few signs of Striga-related stress and parasite emergence
- symptoms of salinity shock (wilting) (Tomato seedlings): appeared unstressed

Compound: CC1=CC(OC=C2C(=O)OC3C4=C(CC23)C(O)CCC4(C)C)OC1=O (stereo not drawn) [ent-strigol]
- activity in germination studies of Striga hermonthica seeds (Striga hermonthica seeds): 22%

Compound: CC1=C[C@H](O/C=C2/C(=O)O[C@@H]3C4=C(CCCC4(C)C)C[C@H]23)OC1=O [Formula 5-dS, 5-deoxystrigol, reference compound]
- germination triggering efficiency (appearance of haustoria) (Seeds of O. cumana): Significant differences in germination triggering efficiency
